Reference: patent US20250215039A1, “NUCLEOSIDES FOR TREATING CANCER” (PRIMEFOUR THERAPEUTICS, INC., priority 2022, published 2025)
Read-outs that look alike come from different tables or passages of the source.

System: cancer cell lines
Assay: Cancer cell proliferation activity (CellTiterGlo, 72 h)
Type: cell-based
Conditions: 72 h, 72 h, read-out: IC50
Method in brief: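 Readout is CellTiterGlo luminescence after 72 h compound exposure (0.1% DMSO final), started one day post-seeding, at 37 °C.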

IC50 (5637 cell line (bladder)): 660 nM | IC50 (AS49 cell line (lung)): 4060 nM | IC50 (CLS439 cell line (bladder)): 9830 nM | IC50 (HS729 cell line (muscle)): 860 nM | IC50 (JAR cell line (placenta)): 330 nM | IC50 (Homo sapiens, 22Rv1, 72 h, 22RV1 cell line (prostate)): 1240 nM | IC50 (Homo sapiens, 786-0, 72 h, 786O cell line (kidney)): 400 nM | IC50 (Homo sapiens, A204, 72 h, A204 cell line (muscle)): 270 nM | IC50 (Homo sapiens, A673, 72 h, A673 cell line (bone)): 1950 nM | IC50 (Homo sapiens, A2780, 72 h, A2780 cell line (ovary)): 770 nM | IC50 (Homo sapiens, A-375, 72 h, A375 cell line (skin)): 210 nM | IC50 (Homo sapiens, A-431, 72 h, A431 cell line (skin)): 290 nM | IC50 (Homo sapiens, ACHN, ACHN cell line (kidney)): 2850 nM | IC50 (Homo sapiens, ASPC1, 72 h, ASPC1 cell line (pancreas)): 230 nM | IC50 (Homo sapiens, BT-20, 72 h, BT20 cell line (breast)): 390 nM | IC50 (Homo sapiens, BXPC-3, 72 h, BXPC3 cell line (pancreas)): 3380 nM | IC50 (Homo sapiens, C-33-A, C33A cell line (cervical)): 650 nM | IC50 (Homo sapiens, CAKI-1, 72 h, CAKI1 cell line (kidney)): 30 nM | IC50 (Homo sapiens, COLO 205, 72 h, COLO205 cell line (colon)): 810 nM | IC50 (Homo sapiens, COLO-678, 72 h, COLO678 cell line (colon)): 4150 nM | IC50 (Homo sapiens, Ca-Ski, CASKI cell line (cervical)): 200 nM | IC50 (Homo sapiens, Caco-2, 72 h, CACO2 cell line (colon)): 660 nM | IC50 (Homo sapiens, Calu-6, 72 h, CALU6 cell line (lung)): 300 nM | IC50 (Homo sapiens, DLD-1, 72 h, DLD1 cell line (colon)): 2490 nM | IC50 (Homo sapiens, DU-145, 72 h, DU145 cell line (prostate)): 160 nM | IC50 (Homo sapiens, EFO-21, 72 h, EFO21 cell line (ovary)): 540 nM | IC50 (Homo sapiens, EJ-28, 72 h, EJ28 cell line (bladder)): 440 nM | IC50 (Homo sapiens, Granta-519, 72 h, GRANTA-519 cell line (hematological)): 3460 nM | IC50 (Homo sapiens, HCT-15, 72 h, HCT15 cell line (colon)): 2070 nM | IC50 (Homo sapiens, HCT-116, 72 h, HCT116 cell line (colon)): 620 nM | IC50 (Homo sapiens, HEK293, 72 h, HEK293 cell line (kidney)): 460 nM | IC50 (Homo sapiens, HL-60, 72 h, HL-60 cell line (hematological)): 670 nM | IC50 (Homo sapiens, HT-29, 72 h, HT29 cell line (colon)): 300 nM | IC50 (Homo sapiens, HT-1080, 72 h, HT1080 cell line (connective tissue)): > 50000 nM | IC50 (Homo sapiens, HeLa, HELA cell line (cervical)): 490 nM | IC50 (Homo sapiens, HepG2, 72 h, HEPG2 cell line (liver)): 450 nM | IC50 (Homo sapiens, Hs-578T, HS578T cell line, breast): 470 nM | IC50 (Homo sapiens, IGROV-1, 72 h, IGROV1 cell line (ovary)): 340 nM | IC50 (Homo sapiens, IMR-90, 72 h, IMR90 cell line, lung): 450 nM | IC50 (Homo sapiens, J82, 72 h, J82 cell line (bladder)): 380 nM | IC50 (Homo sapiens, JEG-3, 72 h, JEG3 cell line (placenta)): 380 nM | IC50 (Homo sapiens, JIMT-1, 72 h, JIMT1 cell line (breast)): 90 nM | IC50 (Homo sapiens, K562, 72 h, K-562 cell line (hematological)): 3950 nM | IC50 (Homo sapiens, Kasumi 1, 72 h, KASUMI-1 cell line (hematological)): 80 nM | IC50 (Homo sapiens, L-363, 72 h, L-363 cell line (hematological)): 420 nM | IC50 (Homo sapiens, LoVo, LOVO cell line (colon)): 190 nM | IC50 (Homo sapiens, MCF7, 72 h, MCF7 cell line (breast)): > 50000 nM | IC50 (Homo sapiens, MDA-MB-231, 72 h, MDAMB231 cell line (breast)): 7320 nM | IC50 (Homo sapiens, MDA-MB-435, 72 h, MDAMB435 cell line (skin)): 1690 nM | IC50 (Homo sapiens, MDA-MB-436, 72 h, MDAMB436 cell line (breast)): 250 nM | IC50 (Homo sapiens, MDA-MB-468, 72 h, MDAMB468 cell line (breast)): 240 nM | IC50 (Homo sapiens, MG-63, 72 h, MG63 cell line (bone)): > 50000 nM | IC50 (Homo sapiens, MHH-ES-1, 72 h, MHHES1 cell line (bone)): 500 nM | IC50 (Homo sapiens, MIA PaCa-2, 72 h, MIAPACA2 cell line (pancreas)): > 50000 nM | IC50 (Homo sapiens, MINO, MINO cell line (hematological)): 180 nM | IC50 (Homo sapiens, MV4-11, 72 h, MV4-11 cell line (hematological)): 160 nM | IC50 (Homo sapiens, NCI-H23, 72 h, NCI-H23 cell line (lung)): 640 nM | IC50 (Homo sapiens, NCI-H82, 72 h, NCIH82 cell line (lung)): 490 nM | IC50 (Homo sapiens, NCI-H292, 72 h, NCIH292 cell line (lung)): 2970 nM | IC50 (Homo sapiens, NCI-H460, 72 h, NCIH460 cell line (lung)): 600 nM | IC50 (Homo sapiens, OVCAR-3, 72 h, OVCAR3 cell line (ovary)): 180 nM | IC50 (Homo sapiens, OVCAR-4, 72 h, OVCAR4 cell line (ovary)): 600 nM | IC50 (Homo sapiens, PANC-1, 72 h, PANC1 cell line (pancreas)): > 50000 nM | IC50 (Homo sapiens, PC-3, 72 h, PC3 cell line (prostate)): 660 nM | IC50 (Homo sapiens, PLC-PRF-5, 72 h, PLCPRF5 cell line (liver)): 4950 nM | IC50 (Homo sapiens, Panc1005, 72 h, PANC1005 cell line (pancreas)): 370 nM | IC50 (Homo sapiens, RD, RD cell line (muscle)): 870 nM | IC50 (Homo sapiens, Ramos, RAMOS cell line (hematological)): 600 nM | IC50 (Homo sapiens, SAOS-2, 72 h, SAOS2 cell line (bone)): 360 nM | IC50 (Homo sapiens, SF-268, 72 h, SF268 cell line (brain)): > 50000 nM | IC50 (Homo sapiens, SF-295, 72 h, SF295 cell line (brain)): 1730 nM | IC50 (Homo sapiens, SK-BR-3, 72 h, SKBR3 cell line (breast)): 70 nM | IC50 (Homo sapiens, SK-HEP1, 72 h, SKHEP1 cell line (liver)): 3410 nM | IC50 (Homo sapiens, SK-LMS-1, 72 h, SKLMS1 cell line (uterus)): 340 nM | IC50 (Homo sapiens, SK-MEL-5, 72 h, SKMEL5 cell line, skin): 4010 nM | IC50 (Homo sapiens, SK-MEL-28, 72 h, SKMEL28 cell line (skin)): 670 nM | IC50 (Homo sapiens, SK-N-AS, SKNAS cell line (brain)): 630 nM | IC50 (Homo sapiens, SK-N-SH, SKNSH cell line (brain)): 320 nM | IC50 (Homo sapiens, SK-OV-3, 72 h, SKOV3 cell line (ovary)): 620 nM | IC50 (Homo sapiens, SNB-75, 72 h, SNB75 cell line (brain)): 1510 nM | IC50 (Homo sapiens, SU-DHL10, 72 h, SU-DHL-10 cell line (hematological)): 530 nM | IC50 (Homo sapiens, SU-DHL-6, 72 h, SU-DHL-6 cell line (hematological)): 360 nM | IC50 (Homo sapiens, SW-620, 72 h, SW620 cell line (colon)): 540 nM | IC50 (Homo sapiens, T-24, 72 h, T24 cell line (bladder)): 710 nM | IC50 (Homo sapiens, TE-671, 72 h, TE671 cell line (muscle)): 1920 nM | IC50 (Homo sapiens, THP-1, 72 h, THP-1 cell line (hematological)): > 50000 nM | IC50 (Homo sapiens, U2OS, U2OS cell line (bone)): 610 nM | IC50 (Homo sapiens, U-87 MG, U87MG cell line (brain)): 3660 nM | IC50 (Homo sapiens, UMUC3, 72 h, UMUC3 cell line (bladder)): 3400 nM | IC50 (Homo sapiens, UO-31, 72 h, UO31 cell line (kidney)): 280 nM | IC50 (Homo sapiens, WSU-NHL, WSU-NHL cell line (hematological)): 430 nM | IC50 (MT-3, 72 h, MT3 cell line (breast)): 360 nM | IC50 (NCI-H358M, NCIH358M cell line (lung)): 430 nM | IC50 (PBMC, PBMC (hematological)): > 50000 nM | IC50 (RD-ES, RDES cell line (bone)): 270 nM
Compound: COC[C@]1(CO)O[C@@H](n2cnc3c(N)nc(F)nc32)C[C@@H]1O [Cpd. No. 140, (2S,3S,5R)-5-(6-amino-2-fluoro-9H-purin-9-yl)-2-(hydroxymethyl)-2-(methoxymethyl)tetrahydrofuran-3-ol]
